Laboratory results published in ChEMBL document CHEMBL3627642 (Bioorg Med Chem, 2015).

Legend:
[1] = Inhibition of thrombin-induced rabbit platelet aggregation after 4 hrs in presence of rabbit liver microsomes; design: species or system Oryctolagus cuniculus
Rattus norvegicus = experiment: Antithrombotic activity in Sprague-Dawley rat venous thrombosis model assessed as reduction of thrombus weight administered intragastrically qd for 3 days measured 2 hrs after last dose; format: functional, organism-based
Mus musculus = experiment: Toxicity in mouse assessed as bleeding time at 22 mg/kg, po administered 90 mins before surgery measured up to 15 mins by tail bleeding test; format: organism-based; conditions: in vivo
Prothrombin = Prothrombin (Homo sapiens, UniProt P00734); experiment: Inhibition of human thrombin using tosyl-glycyl-prolyl-arginine-4-nitranilide acetate as substrate preincubated for 10 mins by spectrophotometer analysis

Compound | IC50 [1] [nM] | Activity (Rattus norvegicus) | Activity (Mus musculus) | IC50 (Prothrombin) [nM]
CCOC(=O)CCN(C(=O)c1ccc2c(c1)nc1n2CCNC1Cc1ccc(/C(N)=N/C(=O)OC(C)C)cc1)c1ccccn1 (stereo not given) | 870 |  |  | 
CCCCCOC(=O)/N=C(\N)c1ccc(CC2c3nc4cc(C(=O)N(CCC(=O)OCC)c5ccccn5)ccc4n3CCN2C(=O)OCCCCC)cc1 (stereo not given) | 17900 |  |  | 
CCOC(=O)CCN(C(=O)c1ccc2c(c1)nc1n2CCNC1Cc1ccc(/C(N)=N/C(=O)OCC(C)C)cc1)c1ccccn1 (stereo not given) | 840 |  |  | 
CCCCCCOC(=O)NC(=N)c1ccc(NCc2nc3cc(C(=O)N(CCC(=O)OCC)c4ccccn4)ccc3n2C)cc1 [DABIGATRAN ETEXILATE] | 340 | Dose-dependent effect |  | 
CCCCCOC(=O)/N=C(\N)c1ccc(CC2NCCn3c2nc2cc(C(=O)N(CCC(=O)OCC)c4ccccn4)ccc23)cc1 (stereo not given) | 27200 |  |  | 
CCCCCCOC(=O)/N=C(\N)c1ccc(CC2NCCn3c2nc2cc(C(=O)N(CCC(=O)OCC)c4ccccn4)ccc23)cc1 (stereo not given) | 730 | Dose-dependent effect | Toxic | 
CCOC(=O)CCN(C(=O)c1ccc2c(c1)nc1n2CCN(C(=O)OC(C)C)C1Cc1ccc(/C(N)=N/C(=O)OC(C)C)cc1)c1ccccc1 (stereo not given) | 860 | Dose-dependent effect |  | 
CCCCCCOC(=O)/N=C(\N)c1ccc(CC2NCCn3c2nc2cc(C(=O)N(CCC(=O)OCc4nc(C)c(C)nc4C)c4ccccc4)ccc23)cc1 (stereo not given) | 1210 | Dose-dependent effect | Toxic | 
CCCCCCOC(=O)/N=C(\N)c1ccc(CC2c3nc4cc(C(=O)N(CCC(=O)OCC)c5ccccc5)ccc4n3CCN2C(=O)OCCCCCC)cc1 (stereo not given) | 910 | Dose-dependent effect | Non-toxic | 
CCOC(=O)CCN(C(=O)c1ccc2c(c1)nc1n2CCN(C(=O)OCC)C1Cc1ccc(/C(N)=N/C(=O)OCC)cc1)c1ccccn1 (stereo not given) | 3420 |  |  | 
CCOC(=O)CCN(C(=O)c1ccc2c(c1)nc1n2CCNC1Cc1ccc(/C(N)=N/C(=O)OC(C)(C)C)cc1)c1ccccn1 (stereo not given) | 3320 |  |  | 
CCOC(=O)CCN(C(=O)c1ccc2c(c1)nc1n2CCNC1Cc1ccc(/C(N)=N/C(=O)OC(C)C)cc1)c1ccccc1 (stereo not given) | 1540 | Dose-dependent effect | Toxic | 
CCOC(=O)CCN(C(=O)c1ccc2c(c1)nc1n2CCN(C(=O)OC(C)C)C1Cc1ccc(/C(N)=N/C(=O)OC(C)C)cc1)c1ccccn1 (stereo not given) | 1520 |  |  | 
CCCCCCOC(=O)/N=C(\N)c1ccc(CC2NCCn3c2nc2cc(C(=O)N(CCC(=O)OCc4nc(C)c(C)nc4C)c4ccccn4)ccc23)cc1 (stereo not given) | 640 | Dose-dependent effect | Non-toxic | 
CCOC(=O)CCN(C(=O)c1ccc2c(c1)nc1n2CCNC1Cc1ccc(/C(N)=N/C(=O)OCc2ccccc2)cc1)c1ccccn1 (stereo not given) | 5960 |  |  | 
N=C(N)c1ccc(CC2NCCn3c2nc2cc(C(=O)N(CCC(=O)O)c4ccccc4)ccc23)cc1 (stereo not given) |  |  |  | 7.48
CCOC(=O)CCN(C(=O)c1ccc2c(c1)nc1n2CCN(C(=O)OCc2ccccc2)C1Cc1ccc(/C(N)=N/C(=O)OCc2ccccc2)cc1)c1ccccn1 (stereo not given) | 9660 |  |  | 
CCCCCCOC(=O)/N=C(\N)c1ccc(CC2NCCn3c2nc2cc(C(=O)N(CCC(=O)OCC)c4ccccc4)ccc23)cc1 (stereo not given) | 1440 | Dose-dependent effect | Non-toxic | 
N=C(N)c1ccc(CC2NCCn3c2nc2cc(C(=O)N(CCC(=O)O)c4ccccn4)ccc23)cc1 (stereo not given) | 600 |  |  | 9.2
CCOC(=O)CCN(C(=O)c1ccc2c(c1)nc1n2CCNC1Cc1ccc(/C(N)=N/C(=O)OCC)cc1)c1ccccn1 (stereo not given) | 4090 |  |  | 
CCOC(=O)CCN(C(=O)c1ccc2c(c1)nc1n2CCN(C(=O)OCC(C)C)C1Cc1ccc(/C(N)=N/C(=O)OCC(C)C)cc1)c1ccccn1 (stereo not given) | 8720 |  |  | 
CCOC(=O)CCN(C(=O)c1ccc2c(c1)nc1n2CCN(C(=O)OC(C)(C)C)C1Cc1ccc(/C(N)=N/C(=O)OC(C)(C)C)cc1)c1ccccn1 (stereo not given) | 13800 |  |  | 
CCCCCCOC(=O)/N=C(\N)c1ccc(CC2c3nc4cc(C(=O)N(CCC(=O)OCC)c5ccccn5)ccc4n3CCN2C(=O)OCCCCCC)cc1 (stereo not given) | 750 | Dose-dependent effect | Non-toxic | 
